Laboratory results from US9212168B2 (priority 2011, dated 2015).

System: HCV genotype 1a replicon
Assay: HCV genotype 1a replicon assay (NS3 protease activity readout)
Format: cell-based, hepatitis C virus
Conditions: for EC50: Hepatitis C virus, read-out: Genotype 1a, HCV genotype 1a replicon; for Genotype 1a: HCV genotype 1a replicon
Summary of the method: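 Genotype 1a subgenomic replicon cells (APC89, Huh7.5) were treated with compound dose-responses in G418-free medium, 0.5% DMSO final, for 48 or 72 hours at 37° C. Lysate NS3/4a protease activity measured with 15 μM FRET substrate, 20 min at 37° C (ex 340/em 509 nm); EC50 by 4-parameter fit.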

Row | SMILES | EC50 [nM] | Genotype 1a
1 | COC(=O)N[C@H](C(=O)N1C[C@@H]([S+](C)[O-])C[C@H]1c1nc(-c2ccc(-c3ccc(C(=O)Nc4ccc(N5CCN(C(=O)C6CC6(C)C)C[C@H]5C)nc4)cc3OC(F)(F)F)cc2)c[nH]1)C(C)C (stereo partly drawn) [Example 6-18] | 0.1 to 1 | –
2 | COC(=O)N[C@H](C(=O)N1C[C@@H](C)C[C@H]1c1nc(-c2ccc(-c3cc(Cl)c(NC(=O)c4ccc(N5CCN(C(=O)C6CCOCC6)C[C@H]5C)nc4)cc3OC(F)(F)F)cc2)c[nH]1)C(C)C [Example 12-27] | 0.1 to 1 | –
3 | COC(=O)N[C@H](C(=O)N1C[C@@H](C)C[C@H]1c1nc(-c2ccc(-c3cc(Cl)c(NC(=O)c4ccc(N5CCN(C(=O)C(C)(C)CO)C(CO)C5)nc4)cc3OC(F)(F)F)cc2)c[nH]1)C(C)C (stereo partly drawn) [Example 14-4] | – | B (B represents pEC50 between 8 and 9 (EC50 between 1 and 10 nM))
4 | COC(=O)N[C@H](C(=O)N1C[C@@H](C)C[C@H]1c1nc(-c2ccc(-c3cc(F)c(NC(=O)c4ccc(N5CCN(C(=O)C(C)(C)CO)C[C@H]5C)nc4)cc3OC(F)(F)F)cc2)c[nH]1)[C@H](C)OC [Example 13-25] | 0.1 to 1 | –
5 | COC(=O)N[C@H](C(=O)N1C[C@@H](C)C[C@H]1c1nc(-c2ccc(-c3cc(Cl)c(NC(=O)c4ccc(N5CCN(C(=O)c6ccccn6)C[C@H]5C)nc4)cc3OC(F)(F)F)cc2)c[nH]1)C(C)C [Example 12-7] | 0.1 to 1 | –
6 | COC(=O)N[C@H](C(=O)N1C[C@@H](C)C[C@H]1c1nc(-c2ccc(-c3ccc(C(=O)Nc4ccc(N5C[C@H](C)N(C(=O)C(C)(C)NC(C)=O)C[C@H]5C)nc4)cc3OC(F)(F)F)cc2)c[nH]1)C(C)C [Example 4-27] | – | C (C represents pEC50 between and 9 and about 10, (EC50 between 1 nM and 0.1 nM))
7 | COC(=O)N[C@H](C(=O)N1C[C@@H](C)C[C@H]1c1nc(-c2ccc(-c3cc(Cl)c(NC(=O)c4ccc(N5CCN(C(=O)C6CC67CC7)C[C@H]5C)nc4)cc3C(F)(F)F)cc2)c[nH]1)C(C)C (stereo partly drawn) [Example 1-89] | – | D (D represents pEC50>10 (EC50<0.1 nM))
8 | CCC(CO)(CO)C(=O)N1CCN(c2ccc(C(=O)Nc3cc(OC(F)(F)F)c(-c4ccc(-c5c[nH]c([C@@H]6C[C@H](C)CN6C(=O)[C@@H](NC(=O)OC)C(C)C)n5)cc4)cc3Cl)cn2)[C@H](C)C1 [Example 12-4] | < 0.1 | –
9 | COC(=O)N[C@H](C(=O)N1C[C@@H](C)C[C@H]1c1nc(-c2ccc(-c3cc(F)c(NC(=O)c4ccc(N5C[C@H](C)N(C(=O)c6c[nH]cn6)C[C@H]5C)nc4)cc3C(F)(F)F)cc2)c[nH]1)C(C)C [Example 1-21] | – | D (D represents pEC50>10 (EC50<0.1 nM))
10 | COC(=O)N[C@H](C(=O)N1C[C@@H](O)C[C@H]1c1nc(-c2ccc(-c3cc(Cl)c(NC(=O)c4ccc(N5CCN(C(=O)C(C)(C)CO)C[C@H]5C)nc4)cc3OC(F)(F)F)cc2)c[nH]1)C1CCOCC1 [Example 26-11] | – | A (A represents a pEC50 value between 6 and 8 (EC50 between 1 μM and 10 nM))
11 | COC(=O)N[C@H](C(=O)N1[C@@H]2C[C@@H]2C[C@H]1c1nc(-c2ccc(-c3cc(Cl)c(NC(=O)c4ccc(N5CCN(C(=O)C6CC67CC7)C[C@H]5C)nc4)cc3C(F)(F)F)cc2)c[nH]1)C(C)C (stereo partly drawn) [Example 8-6] | 0.1 to 1 | –
12 | COC(=O)N[C@H](C(=O)N1C[C@@H](C)C[C@H]1c1nc(-c2ccc(-c3ccc(C(=O)Nc4ccc(N5C[C@H](C)N(C(=O)C6CC6(Cl)Cl)C[C@H]5C)nc4)cc3OC(F)(F)F)cc2)c[nH]1)C(C)C (stereo partly drawn) [Example 4-23] | – | C (C represents pEC50 between and 9 and about 10, (EC50 between 1 nM and 0.1 nM))
13 | COC(=O)NC(C(=O)N1C[C@@H](C)C[C@H]1c1nc(-c2ccc(-c3cc(Cl)c(NC(=O)c4ccc(N5CCN(C(=O)C(C)(C)C)C[C@H]5C)nc4)cc3OC(F)(F)F)cc2)c[nH]1)C1CCS(=O)(=O)CC1 (stereo partly drawn) [Example 13-36] | 1 to 10 | –
14 | COC(=O)N[C@H](C(=O)N1C[C@@H](C)C[C@H]1c1nc(-c2ccc(-c3cc(F)c(NC(=O)c4ccc(N5CCN(C(=O)C(C)(C)CO)C[C@H]5C)nc4)cc3OC(F)(F)F)cc2)c[nH]1)C(C)(C)O [Example 13-23] | < 0.1 | –
15 | COC(=O)N[C@H](C(=O)N1C[C@@H](C)C[C@H]1c1nc(-c2ccc(-c3cc(Cl)c(NC(=O)c4ccc(N5CCN(C(=O)c6c[nH]cn6)C[C@H]5C)nc4)cc3C(F)(F)F)cc2)c[nH]1)C(C)C [Example 1-32] | – | D (D represents pEC50>10 (EC50<0.1 nM))
16 | COC(=O)N[C@H](C(=O)N1C[C@@H](C)C[C@H]1c1nc(-c2ccc(-c3cc(F)c(NC(=O)c4ccc(N5CCN(C(=O)C6(C)CC6)C[C@H]5C)nc4)cc3OC(F)(F)F)cc2)c[nH]1)C(C)C [Example 1-79] | – | C (C represents pEC50 between and 9 and about 10, (EC50 between 1 nM and 0.1 nM))
17 | COC(=O)N[C@H](C(=O)N1C[C@@H](C)C[C@H]1c1nc(-c2ccc(-c3cc(Cl)c(NC(=O)c4ccc(N5CCN(C(=O)NN6CCOCC6)C[C@H]5C)nc4)cc3OC(F)(F)F)cc2)c[nH]1)C(C)C [Example 12-18] | < 0.1 | –

Row | SMILES | EC50 [nM] | Genotype 1a
18 | COC(=O)N[C@H](C(=O)N1C[C@@H](C)C[C@H]1c1nc(-c2ccc(-c3cc(F)c(NC(=O)c4ccc(N5CCN(C(=O)C6CC6)C[C@H]5C)nc4)cc3C(F)(F)F)cc2)c[nH]1)C(C)C [Example 1-52] | – | C (C represents pEC50 between and 9 and about 10, (EC50 between 1 nM and 0.1 nM))
19 | COC(=O)N[C@H](C(=O)N1C[C@@H](C)C[C@H]1c1nc(-c2ccc(-c3cc(Cl)c(NC(=O)c4ccc(N5CCN(C(=O)C6CC67CC7)C[C@H]5C)nc4)cc3OC(F)(F)F)cc2)c[nH]1)C(C)C (stereo partly drawn) [Example 1-87] | – | D (D represents pEC50>10 (EC50<0.1 nM))
20 | COC(=O)N[C@H](C(=O)N1C[C@@H](C)C[C@H]1c1nc(-c2ccc(-c3cc(Cl)c(NC(=O)c4ccc(N5CCN(C(=O)C(C)(C)C)C(CO)C5)nc4)cc3OC(F)(F)F)cc2)c[nH]1)C(C)C (stereo partly drawn) [Example 14-1] | 0.1 to 1 | –
21 | COC(=O)N[C@H](C(=O)N1C[C@@H](C)C[C@H]1c1nc(-c2ccc(-c3cc(F)c(NC(=O)c4ccc(N5CCN(C(=O)[C@]6(C)CCCN6)C[C@H]5C)nc4)cc3OC(F)(F)F)cc2)c[nH]1)C(C)C [Example 1-27] | – | C (C represents pEC50 between and 9 and about 10, (EC50 between 1 nM and 0.1 nM))
22 | COC(=O)N[C@H](C(=O)N1C[C@H](OC)C[C@H]1c1nc(-c2ccc(-c3cc(Cl)c(NC(=O)c4ccc(N5CCN(C(=O)C(C)(C)C)C[C@H]5C)nc4)cc3OC(F)(F)F)cc2)c[nH]1)C1CCOCC1 [Example 5-20] | < 0.1 | –
23 | COC(=O)NC(C(=O)N1CC(OC)CC1c1nc(-c2ccc(-c3ccc(NC(=O)c4ccc(N5CCN(C(=O)C(C)(C)C)CC5C)nc4)cc3OC(F)(F)F)cc2)c[nH]1)C(C)O (stereo not drawn) [Example 16-10] | – | C (C represents pEC50 between and 9 and about 10, (EC50 between 1 nM and 0.1 nM))
24 | CNC(=O)N1CCN(c2ccc(C(=O)Nc3cc(C(F)(F)F)c(-c4ccc(-c5c[nH]c([C@@H]6CC(C)(C)CN6C(=O)[C@@H](NC(=O)OC)C(C)C)n5)cc4)cc3F)cn2)[C@H](C)C1 [Example 3-4] | 0.1 to 1 | –
25 | CCCCOC(=O)N[C@H](C(=O)N1C[C@@H](C)C[C@H]1c1nc(-c2ccc(-c3cc(Cl)c(NC(=O)c4ccc(N5C[C@H](C)N(C(=O)NC)C[C@H]5C)nc4)cc3OC(F)(F)F)cc2)c[nH]1)C(C)C [Example 7-4] | – | B (B represents pEC50 between 8 and 9 (EC50 between 1 and 10 nM))
26 | COC(=O)N[C@H](C(=O)N1C[C@@H](C)C[C@H]1c1nc(-c2ccc(-c3cc(Cl)c(NC(=O)c4ccc(N5CCN(C(=O)C(C)(C)C)C[C@H]5C)nc4)c(Cl)c3OC(F)(F)F)cc2)c[nH]1)C(C)C [Example 5-14] | 0.1 to 1 | –
27 | COC(=O)N[C@H](C(=O)N1C[C@@H](C)C[C@H]1c1nc(-c2ccc(-c3ccc(C(=O)Nc4ccc(N5C[C@H](C)N(C(=O)NC(C)C)C[C@H]5C)nc4)cc3OC(F)(F)F)cc2)c[nH]1)C(C)C [Example 4-25] | – | C (C represents pEC50 between and 9 and about 10, (EC50 between 1 nM and 0.1 nM))
28 | COC(=O)N[C@H](C(=O)N1C[C@@H](C)C[C@H]1c1nc(-c2ccc(-c3ccc(C(=O)Nc4ccc(N5C[C@H](C)N(C(=O)NC6CC6)C[C@H]5C)nc4)cc3OC(F)(F)F)cc2)c[nH]1)C(C)C [Example 4-24] | – | C (C represents pEC50 between and 9 and about 10, (EC50 between 1 nM and 0.1 nM))
29 | COC(=O)NC(C(=O)N1CC(C)CC1c1nc(-c2ccc(-c3ccc(NC(=O)c4ccc(N5CCN(C(=O)C(C)(C)C)CC5C)nc4)cc3OC(F)(F)F)cc2)c[nH]1)C(C)(C)O (stereo not drawn) [Example 13-15] | – | D (D represents pEC50>10 (EC50<0.1 nM))
30 | COC(=O)NC(C(=O)N1CC(C)CC1c1nc(-c2ccc(-c3cc(F)c(NC(=O)c4ccc(N5CCN(C(=O)C6CC6(Cl)Cl)CC5C)nc4)cc3Cl)cc2)c[nH]1)C(C)C (mixture of isomers) [Example 1-77] | – | D (D represents pEC50>10 (EC50<0.1 nM))
31 | COC(=O)N[C@H](C(=O)N1C[C@@H](C)C[C@H]1c1nc(-c2ccc(-c3cc(Cl)c(NC(=O)c4ccc(N5CCN(C(=O)C6CC6)C[C@H]5C)nc4)cc3C(F)(F)F)cc2)c[nH]1)C(C)C [Example 1-54] | – | D (D represents pEC50>10 (EC50<0.1 nM))
32 | COC(=O)N[C@H](C(=O)N1C[C@@H](C)C[C@H]1c1nc(-c2ccc(-c3cc(F)c(NC(=O)c4ccc(N5CCN(C(=O)c6c[nH]cn6)C[C@H]5C)nc4)cc3OC(F)(F)F)cc2)c[nH]1)C(C)C [Example 1-25] | – | D (D represents pEC50>10 (EC50<0.1 nM))
33 | COC[C@H]1C[C@@H](c2nc(-c3ccc(-c4cc(Cl)c(NC(=O)c5ccc(N6CCN(C(=O)C(C)(C)C)C[C@H]6C)nc5)cc4OC(F)(F)F)cc3)c[nH]2)N(C(=O)[C@@H](NC(=O)OC)C2CCOCC2)C1 [Example 5-15] | < 0.1 | –
